Key:
rat P2X3 receptor = target: T1, rat P2X3 receptor (Rattus norvegicus, UniProt P49654); experiment: P2X3/P2X2/3 FLIPR (Fluorometric Imaging Plate Reader) Assay, P2X3; assay type: cell-based; conditions: CHO-K1 cells transfected with rat P2X3; agonist α,β-meATP 1 μM; Table 1; read-out: P2X3 pKi (converted)
T1 construct: expressed in transfected cells; host or cells: CHO-K1
T1 sequence (P49654 1-397): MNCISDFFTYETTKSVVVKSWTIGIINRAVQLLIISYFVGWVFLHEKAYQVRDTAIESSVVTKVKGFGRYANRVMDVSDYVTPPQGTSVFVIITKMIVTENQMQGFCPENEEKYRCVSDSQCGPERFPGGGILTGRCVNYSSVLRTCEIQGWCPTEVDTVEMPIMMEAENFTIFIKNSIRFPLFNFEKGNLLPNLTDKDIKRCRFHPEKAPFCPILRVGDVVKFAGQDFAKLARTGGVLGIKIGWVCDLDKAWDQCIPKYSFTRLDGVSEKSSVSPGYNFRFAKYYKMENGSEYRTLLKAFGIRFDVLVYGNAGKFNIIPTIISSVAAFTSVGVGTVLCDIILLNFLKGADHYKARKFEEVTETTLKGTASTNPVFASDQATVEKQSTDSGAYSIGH
Experimental: (§1) P2X3/P2X2/3 FLIPR (Fluorometric Imaging Plate Reader) Assay
(§2) CHO-K1 cells were transfected with cloned rat P2X3 or human P2X2/3 receptor subunits and passaged in flasks. 18-24 hours before the FLIPR experiment, cells were released from their flasks, centrifuged, and resuspended in nutrient medium at 2.5×10^5 cells/ml. The cells were aliquoted into black-walled 96-well plates at a density of 50,000 cells/well and incubated overnight in 5% CO2 at 37° C. On the day of the experiment, cells were washed in FLIPR buffer (calcium- and magnesium-free Hank's balanced salt solution, 10 mM HEPES, 2 mM CaCl2, 2.5 mM probenecid; FB). Each well received 100 μl FB and 100 μl of the fluorescent dye Fluo-3 AM [2 μM final conc.]. After a 1 hour dye loading incubation at 37° C., the cells were washed 4 times with FB, and a final 75 μl/well FB was left in each well.
(§3) Test compounds (dissolved in DMSO at 10 mM and serially diluted with FB) or vehicle were added to each well (25 μl of a 4× solution) and allowed to equilibrate for 20 minutes at room temperature. The plates were then placed in the FLIPR and a baseline fluorescence measurement (excitation at 488 nm and emission at 510-570 nm) was obtained for 10 seconds before a 100 μl/well agonist or vehicle addition. The agonist was a 2× solution of α,β-meATP producing a final concentration of 1 μM (P2X3) or 5 μM (P2X2/3). Fluorescence was measured for an additional 2 minutes at 1 second intervals after agonist addition. A final addition of ionomycin (5 μM, final concentration) was made to each well of the FLIPR test plate to establish cell viability and maximum fluorescence of dye-bound cytosolic calcium. Peak fluorescence in response to the addition of α,β-meATP (in the absence and presence of test compounds) was measured and inhibition curves generated using nonlinear regression. PPADS, a standard P2X antagonist, was used as a positive control.

human P2X2/3 receptor = target: T2, human P2X2/3 receptor (Homo sapiens, UniProt P56373+Q9UBL9); experiment: P2X3/P2X2/3 FLIPR (Fluorometric Imaging Plate Reader) Assay, P2X2/3; assay type: cell-based; conditions: CHO-K1 cells transfected with human P2X2/3; agonist α,β-meATP 5 μM; Table 1; read-out: P2X2/3 pKi (converted)
T2 construct: expressed in transfected cells; host or cells: CHO-K1
T2 sequence (Q9UBL9 1-471): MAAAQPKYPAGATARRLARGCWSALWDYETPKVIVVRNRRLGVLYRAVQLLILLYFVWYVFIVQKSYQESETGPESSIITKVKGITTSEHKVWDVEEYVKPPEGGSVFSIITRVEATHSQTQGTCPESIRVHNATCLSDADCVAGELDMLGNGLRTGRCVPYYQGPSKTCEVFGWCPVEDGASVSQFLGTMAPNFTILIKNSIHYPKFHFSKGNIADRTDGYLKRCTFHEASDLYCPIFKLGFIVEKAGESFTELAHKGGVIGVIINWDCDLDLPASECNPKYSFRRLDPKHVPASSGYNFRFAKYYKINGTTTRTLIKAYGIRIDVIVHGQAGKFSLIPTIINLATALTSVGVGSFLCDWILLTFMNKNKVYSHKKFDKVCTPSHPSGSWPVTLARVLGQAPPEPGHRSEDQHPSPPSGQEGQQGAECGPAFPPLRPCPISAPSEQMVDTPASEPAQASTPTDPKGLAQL
T2 sequence (P56373 1-397): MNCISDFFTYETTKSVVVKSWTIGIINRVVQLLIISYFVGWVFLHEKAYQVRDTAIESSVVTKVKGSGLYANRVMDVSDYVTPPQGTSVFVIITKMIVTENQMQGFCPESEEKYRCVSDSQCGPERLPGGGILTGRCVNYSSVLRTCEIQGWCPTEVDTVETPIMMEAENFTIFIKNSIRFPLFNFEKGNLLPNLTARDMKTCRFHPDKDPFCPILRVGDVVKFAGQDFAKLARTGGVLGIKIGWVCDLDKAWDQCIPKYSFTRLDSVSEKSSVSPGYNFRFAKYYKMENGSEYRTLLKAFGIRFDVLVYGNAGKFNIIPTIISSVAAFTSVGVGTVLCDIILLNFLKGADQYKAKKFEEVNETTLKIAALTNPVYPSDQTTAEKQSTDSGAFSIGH
Experimental: as §1, §2, §3

Ki (rat P2X3 receptor)	Ki (human P2X2/3 receptor)	Compound
9.77 nM	550 nM	CCn1nncc1-c1cc(C(=O)NC(C)c2cnccn2)cc(-c2ccc(C)cc2)c1 (stereo not drawn) [Compound 38, 5-(3-Ethyl-3H-[1,2,3]triazol-4-yl)-4′-methyl-biphenyl-3-carboxylic acid (1-pyrazin-2-yl-ethyl)-amide]
8510 nM	10000 nM	CCn1cc(-c2cc(C(=O)N[C@H](C)COC)cc(-c3ccc(C)cc3)c2)nn1 [Compound 39, 5-(1-Ethyl-1H-[1,2,3]triazol-4-yl)-4′-methyl-biphenyl-3-carboxylic acid ((R)-2-methoxy-1-methyl-ethyl)-amide]
10000 nM	10000 nM	CCn1cc(-c2cc(C(=O)N[C@@H](C)CO)cc(-c3ccc(C)cc3)c2)nn1 [Compound 40, 5-(1-Ethyl-1H-[1,2,3]triazol-4-yl)-4′-methyl-biphenyl-3-carboxylic acid ((S)-2-hydroxy-1-methyl-ethyl)-amide]
182 nM	7410 nM	CCn1cc(-c2cc(C(=O)NC(C)c3cnccn3)cc(-c3ccc(C)cc3)c2)nn1 (stereo not drawn) [Compound 41, 5-(1-Ethyl-1H-[1,2,3]triazol-4-yl)-4′-methyl-biphenyl-3-carboxylic acid (1-pyrazin-2-yl-ethyl)-amide]
7.76 nM	813 nM	CCn1cnnc1-c1cc(C(=O)NC(C)c2cnccn2)cc(-c2ccc(C)cc2)c1 (stereo not drawn) [Compound 43, 5-(4-Ethyl-4H-[1,2,4]triazol-3-yl)-4′-methyl-biphenyl-3-carboxylic acid (1-pyrazin-2-yl-ethyl)-amide]
81.3 nM	759 nM	CC(NC(=O)c1cc(-c2ccc(Cl)cc2)cc(-n2ncnc2N(C)C)c1)c1cnccn1 (stereo not drawn) [Compound 44, 4′-Chloro-5-(5-dimethylamino-[1,2,4]triazol-1-yl)-biphenyl-3-carboxylic acid (1-pyrazin-2-yl-ethyl)-amide]
12.9 nM	3160 nM	COCc1ncnn1-c1cc(C(=O)N[C@@H](C)CO)cc(-c2ccc(C)cc2)c1 [Compound 45, 5-(5-Methoxymethyl-[1,2,4]triazol-1-yl)-4′-methyl-biphenyl-3-carboxylic acid ((S)-2-hydroxy-1-methyl-ethyl)-amide]
5.13 nM	204 nM	COCc1ncnn1-c1cc(C(=O)NC(C)c2cnccn2)cc(-c2ccc(C)cc2)c1 (stereo not drawn) [Compound 46, 5-(5-Methoxymethyl-[1,2,4]triazol-1-yl)-4′-methyl-biphenyl-3-carboxylic acid (1-pyrazin-2-yl-ethyl)-amide]
4.68 nM	2040 nM	COC(C)c1ncnn1-c1cc(C(=O)N[C@@H](C)CO)cc(-c2ccc(C)cc2)c1 (stereo partly drawn) [Compound 47, 5-[5-(1-Methoxy-ethyl)-[1,2,4]triazol-1-yl]-4′-methyl-biphenyl-3-carboxylic acid ((S)-2-hydroxy-1-methyl-ethyl)-amide]
3.89 nM	43.7 nM	COC(C)c1ncnn1-c1cc(C(=O)NC(C)c2cnccn2)cc(-c2ccc(C)cc2)c1 (stereo not drawn) [Compound 48, 5-[5-(1-Methoxy-ethyl)-[1,2,4]triazol-1-yl]-4′-methyl-biphenyl-3-carboxylic acid (1-pyrazin-2-yl-ethyl)-amide]
5.13 nM	282 nM	Cc1ccc(-c2cc(C(=O)NC(C)c3cnccn3)cc(-n3ncnc3C(C)O)c2)cc1 (stereo not drawn) [Compound 49, 5-[5-(1-Hydroxy-ethyl)-[1,2,4]triazol-1-yl]-4′-methyl-biphenyl-3-carboxylic acid (1-pyrazin-2-yl-ethyl)-amide]
26.9 nM	537 nM	COc1ncnn1-c1cc(C(=O)NC(C)c2cnccn2)cc(-c2ccc(Cl)cc2)c1 (stereo not drawn) [Compound 50, 4′-Chloro-5-(5-methoxy-[1,2,4]triazol-1-yl)-biphenyl-3-carboxylic acid (1-pyrazin-2-yl-ethyl)-amide]
200 nM	2950 nM	CC(NC(=O)c1cc(-c2ccc(Cl)cc2)cc(-n2cncn2)c1)c1cnccn1 (stereo not drawn) [Compound 51, 4′-Chloro-5-[1,2,4]triazol-1-yl-biphenyl-3-carboxylic acid (1-pyrazin-2-yl-ethyl)-amide]
14.1 nM	891 nM	CC(C)Oc1ncnn1-c1cc(C(=O)NC(C)c2cnccn2)cc(-c2ccc(Cl)cc2)c1 (stereo not drawn) [Compound 52, 4′-Chloro-5-(5-isopropoxy-[1,2,4]triazol-1-yl)-biphenyl-3-carboxylic acid (1-pyrazin-2-yl-ethyl)-amide]
12.9 nM	309 nM	Cc1ccc(-c2cc(C(=O)NC(C)c3cnccn3)cc(-c3ncnn3C(C)C)c2)cc1 (stereo not drawn) [Compound 53, 5-(2-Isopropyl-2H-[1,2,4]triazol-3-yl)-4′-methyl-biphenyl-3-carboxylic acid (1-pyrazin-2-yl-ethyl)-amide]
21.4 nM	2450 nM	Cc1ccc(-c2cc(C(=O)N[C@@H](C)CO)cc(-c3ncnn3C(C)C)c2)cc1 [Compound 54, 5-(2-Isopropyl-2H-[1,2,4]triazol-3-yl)-4′-methyl-biphenyl-3-carboxylic acid (2-hydroxy-1-methyl-ethyl)-amide]
5.37 nM	457 nM	Cc1ccc(-c2cc(C(=O)N[C@@H](C)CO)cc(-n3ncnc3C(C)C)c2)nc1 [Compound 55, N-(2-Hydroxy-1-methyl-ethyl)-3-(5-isopropyl-[1,2,4]triazol-1-yl)-5-(5-methyl-pyridin-2-yl)-benzamide]
4.57 nM	42.7 nM	Cc1ccc(-c2cc(C(=O)NC(C)c3cnccn3)cc(-n3ncnc3C(C)C)c2)nc1 (stereo not drawn) [Compound 56, 3-(5-Isopropyl-[1,2,4]triazol-1-yl)-5-(5-methyl-pyridin-2-yl)-N-(1-pyrazin-2-yl-ethyl)-benzamide]
74.1 nM	7940 nM	COC(C)c1ncnn1-c1cc(C(=O)N[C@@H](C)CO)cc(-c2ccc(C)cn2)c1 (stereo partly drawn) [Compound 57, N-(2-Hydroxy-1-methyl-ethyl)-3-[5-(1-methoxy-ethyl)-[1,2,4]triazol-1-yl]-5-(5-methyl-pyridin-2-yl)-benzamide]
17 nM	132 nM	COC(C)c1ncnn1-c1cc(C(=O)NC(C)c2cnccn2)cc(-c2ccc(C)cn2)c1 (stereo not drawn) [Compound 58, 3-[5-(1-Methoxy-ethyl)-[1,2,4]triazol-1-yl]-5-(5-methyl-pyridin-2-yl)-N-(1-pyrazin-2-yl-ethyl)-benzamide]
77.6 nM	6170 nM	Cc1ccc(-c2cc(C(=O)N[C@@H](C)CO)cc(-n3ncnc3C3CC3)c2)nc1 [Compound 59, 3-(5-Cyclopropyl-[1,2,4]triazol-1-yl)-N-(2-hydroxy-1-methyl-ethyl)-5-(5-methyl-pyridin-2-yl)-benzamide]

Source: patent US8440708B2, “Triazole-substituted arylamides as P2X3 and P2X2/3 antagonists” (Roche Palo Alto LLC, priority 2007, dated 2013)
